Test results taken from ChEMBL document CHEMBL1148230, “Synthesis, characterization and evaluation of pro-drugs of VLA-4 antagonists” (Bioorg Med Chem Lett, 2004).
≈ marks a conversion by molar mass, not a printed value.

Key:
[1] = Solubility in SIBLM buffer system; format: physicochemical
[2] = Solubility in SIF buffer system; ND= not detectable; format: physicochemical; settings: simulated gi fluid
[3] = Stability in rat plasma was determined; format: ADME
[4] = Log Doctanol value by HPLC peak area analysis of aqueous and octanol phases at pH 4.5-6.5; format: physicochemical
[5] = Solubility in SGF buffer system; format: physicochemical
[6] = Permeability in Caco-2 assay at 10E-6; format: ADME; settings: human, read-out: Activity
[7] = Log Doctanol value by HPLC peak area analysis of aqueous and octanol phases at pH 6.5; format: physicochemical; settings: octanol/aqueous phase, read-out: LogD6.5
[8] = Solubility in SGF buffer system; ND=not detectable; format: physicochemical; settings: simulated gi fluid
[9] = Solubility in SIF buffer system; format: physicochemical
[10] = Log Doctanol value by HPLC peak area analysis of aqueous and octanol phases at pH 4.5; format: physicochemical; settings: octanol/aqueous phase
HUVEC = test: Inhibitory activity against VLA-4 mediated adhesion to human vein endothelial cells; format: functional, cell-based
[11] = octanol/aqueous phase, read-out: logD

SMILES | solubility [1] [µg/mL] | solubility [2] | half-life [3] [min] | logD [4, 11] | logD ([4]; octanol/water) | solubility [5] [µg/mL] | Papp [6] [×10⁻⁶ cm/s] | logD [7] | solubility [8] | solubility [9] [µg/mL] | logD [10] | IC50 (HUVEC) [nM]
CN(C)C(=O)Oc1ccc(C[C@H](NC(=O)[C@H]2N(S(=O)(=O)c3ccn(C)n3)CSC2(C)C)C(=O)OCC(C)(C)C)cc1 | 6.97 (≈ 11.4 µM) | Not detectable | 53.4 | 3.43 | 3.42 | 0.334 (≈ 0.548 µM) | 4.52 |  |  |  |  | 
CN(C)C(=O)Oc1ccc(C[C@H](NC(=O)[C@H]2N(S(=O)(=O)c3ccn(C)n3)CSC2(C)C)C(=O)OCCOc2ccccc2)cc1 | 24 (≈ 36.4 µM) |  | 1.6 |  |  |  | 7.58 | 3.34 | Not detectable | 0.506 (≈ 0.767 µM) | 3.21 | 
COCCOCCOC(=O)[C@H](Cc1ccc(OC(=O)N(C)C)cc1)NC(=O)[C@H]1N(S(=O)(=O)c2ccn(C)n2)CSC1(C)C | 4650 (≈ 7250 µM) |  | 13.1 | 1.41 |  | 2830 (≈ 4410 µM) | 2.03 | 1.42 |  | 2400 (≈ 3740 µM) |  | 
CCOC(=O)[C@H](Cc1ccc(OC(=O)N(C)C)cc1)NC(=O)[C@H]1N(S(=O)(=O)c2ccn(C)n2)CSC1(C)C | 1180 (≈ 2080 µM) |  | 8.08 |  |  | 629 (≈ 1110 µM) | 4.24 | 2 |  | 341 (≈ 601 µM) | 2.27 | 
CN(C)C(=O)Oc1ccc(C[C@H](NC(=O)[C@H]2N(S(=O)(=O)c3ccn(C)n3)CSC2(C)C)C(=O)O)cc1 | 20000 (≈ 37100 µM) |  |  |  |  | 3300 (≈ 6120 µM) | > 0.07 |  |  | > 20000 |  | 6
CC(C)OC(=O)[C@H](Cc1ccc(OC(=O)N(C)C)cc1)NC(=O)[C@H]1N(S(=O)(=O)c2ccn(C)n2)CSC1(C)C | 158 (≈ 272 µM) |  | 10.9 |  |  | 94.9 (≈ 163 µM) | 6.83 | 2.47 |  | 45.5 (≈ 78.2 µM) | 2.45 | 
CN(C)C(=O)Oc1ccc(C[C@H](NC(=O)[C@H]2N(S(=O)(=O)c3ccn(C)n3)CSC2(C)C)C(=O)OCOC(=O)C(C)(C)C)cc1 | 119 (≈ 182 µM) | Not detectable | 2.82 |  |  | 13 (≈ 19.9 µM) | 2.49 | 3.17 |  |  | 3.1 | 
